Where two headings read alike, the source gives them in different places.
Experiments:
Format in all cases: cell-based
kinases in BCWM.1 cells [1] = biological target: kinases in BCWM.1 cells (Homo sapiens, UniProt P21127); test: KINATIV assay of compounds I-3 and I-9, lysate directly labeled with ATP-biotin probe (no GF); conditions: PITSLRE; Lys2; 1 μM, 90 min; no GF
Method: (§1) The cells were harvested and lysed. […] Bound kinases were identified and quantitated by ACTIVX as described in Patricelli et al., Biochemistry, 2007, 46(2): 350-358. The compounds were tested in duplicates against duplicate or quadruplicate control samples.

kinases in BCWM.1 cells [2] = biological target: T1, kinases in BCWM.1 cells (Homo sapiens, UniProt P48736); test: as above; conditions: PIK3CG; ATP; 1 μM, 90 min; no GF
Method: as §1

kinases in BCWM.1 cells [3] = biological target: kinases in BCWM.1 cells (Homo sapiens, UniProt Q9NYL2); test: as above; conditions: ZAK; Lys1; 1 μM, 90 min; no GF
Method: as §1

kinases in BCWM.1 cells [4] = biological target: kinases in BCWM.1 cells (Homo sapiens, UniProt Q96BR1); test: as above; conditions: SGK3; Lys1; 1 μM, 90 min; no GF
Method: as §1

kinases in BCWM.1 cells [5] = biological target: kinases in BCWM.1 cells (Homo sapiens, UniProt Q8TD19); test: as above; conditions: NEK9; Lys2; 1 μM, 90 min; no GF
Sequence of kinases in BCWM.1 cells (Homo sapiens, UniProt Q8TD19) (Q8TD19 2-979 limits assumed): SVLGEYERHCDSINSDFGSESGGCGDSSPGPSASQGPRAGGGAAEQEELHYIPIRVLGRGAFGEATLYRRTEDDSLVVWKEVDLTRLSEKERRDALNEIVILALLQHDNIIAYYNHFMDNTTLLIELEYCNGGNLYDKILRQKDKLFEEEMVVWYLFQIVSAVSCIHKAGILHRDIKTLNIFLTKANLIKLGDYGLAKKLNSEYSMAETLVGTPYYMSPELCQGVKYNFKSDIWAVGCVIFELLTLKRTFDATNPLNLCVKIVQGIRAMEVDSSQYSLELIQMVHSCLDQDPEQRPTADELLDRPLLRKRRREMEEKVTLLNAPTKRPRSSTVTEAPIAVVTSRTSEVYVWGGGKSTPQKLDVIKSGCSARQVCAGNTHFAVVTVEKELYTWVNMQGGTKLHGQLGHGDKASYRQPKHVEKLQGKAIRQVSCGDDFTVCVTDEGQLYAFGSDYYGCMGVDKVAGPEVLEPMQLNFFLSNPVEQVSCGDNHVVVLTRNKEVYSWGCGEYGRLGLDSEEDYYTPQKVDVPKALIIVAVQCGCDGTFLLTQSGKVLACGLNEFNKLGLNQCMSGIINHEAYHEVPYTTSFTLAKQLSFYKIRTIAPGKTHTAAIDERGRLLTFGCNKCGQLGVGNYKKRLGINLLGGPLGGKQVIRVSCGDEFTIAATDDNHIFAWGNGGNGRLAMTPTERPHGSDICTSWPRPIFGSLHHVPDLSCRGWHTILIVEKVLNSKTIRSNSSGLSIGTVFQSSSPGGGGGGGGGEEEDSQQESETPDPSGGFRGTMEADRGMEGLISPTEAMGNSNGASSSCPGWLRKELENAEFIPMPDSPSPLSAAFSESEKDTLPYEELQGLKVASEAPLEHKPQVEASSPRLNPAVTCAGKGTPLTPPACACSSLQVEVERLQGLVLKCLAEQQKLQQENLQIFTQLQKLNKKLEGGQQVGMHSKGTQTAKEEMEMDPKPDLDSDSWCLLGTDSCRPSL
Method: as §1

kinases in BCWM.1 cells [6] = biological target: kinases in BCWM.1 cells (Homo sapiens, UniProt Q9UBE8); test: as above; conditions: NLK; Lys2; 1 μM, 90 min; no GF
Method: as §1

kinases in BCWM.1 cells [7] = biological target: kinases in BCWM.1 cells (Homo sapiens, UniProt Q9NZJ5); test: as above; conditions: PEK; Lys2; 1 μM, 90 min; no GF
Sequence of kinases in BCWM.1 cells (Homo sapiens, UniProt Q9NZJ5) (Q9NZJ5 30-1116 limits assumed): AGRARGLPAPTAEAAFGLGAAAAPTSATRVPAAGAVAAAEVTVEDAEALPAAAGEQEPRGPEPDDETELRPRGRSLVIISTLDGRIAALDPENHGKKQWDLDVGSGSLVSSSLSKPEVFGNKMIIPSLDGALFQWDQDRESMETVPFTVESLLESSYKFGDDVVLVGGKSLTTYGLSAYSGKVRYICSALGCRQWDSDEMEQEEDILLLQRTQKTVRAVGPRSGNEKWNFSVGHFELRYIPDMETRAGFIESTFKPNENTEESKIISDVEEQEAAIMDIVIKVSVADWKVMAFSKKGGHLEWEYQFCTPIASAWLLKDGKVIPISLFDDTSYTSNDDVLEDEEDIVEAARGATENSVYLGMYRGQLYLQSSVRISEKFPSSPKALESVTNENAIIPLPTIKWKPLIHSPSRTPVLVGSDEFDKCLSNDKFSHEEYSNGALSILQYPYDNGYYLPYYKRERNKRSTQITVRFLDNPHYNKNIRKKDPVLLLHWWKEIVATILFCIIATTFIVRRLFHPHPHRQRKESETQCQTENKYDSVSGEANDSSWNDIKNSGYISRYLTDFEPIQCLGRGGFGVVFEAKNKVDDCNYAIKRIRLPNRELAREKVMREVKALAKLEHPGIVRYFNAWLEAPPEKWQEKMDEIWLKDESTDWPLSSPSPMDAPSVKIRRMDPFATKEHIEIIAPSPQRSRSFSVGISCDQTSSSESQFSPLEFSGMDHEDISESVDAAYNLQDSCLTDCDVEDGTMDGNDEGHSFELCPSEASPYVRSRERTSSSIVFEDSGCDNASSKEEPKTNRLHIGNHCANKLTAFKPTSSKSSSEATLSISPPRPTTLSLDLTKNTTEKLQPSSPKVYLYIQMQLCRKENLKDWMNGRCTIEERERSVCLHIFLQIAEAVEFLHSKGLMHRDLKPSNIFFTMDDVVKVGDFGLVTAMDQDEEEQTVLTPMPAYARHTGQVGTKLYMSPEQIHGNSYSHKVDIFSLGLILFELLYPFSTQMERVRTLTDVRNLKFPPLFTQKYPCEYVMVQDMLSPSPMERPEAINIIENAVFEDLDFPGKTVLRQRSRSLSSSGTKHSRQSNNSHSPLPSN
Method: as §1

kinases in BCWM.1 cells [8] = biological target: kinases in BCWM.1 cells (Homo sapiens, UniProt Q9UHD2); test: as above; conditions: TBK1; Lys1; 1 μM, 90 min; no GF
Method: as §1

kinases in BCWM.1 cells [9] = biological target: T2, kinases in BCWM.1 cells (Homo sapiens, UniProt P42680); test: as above; conditions: TEC; Activation Loop; 1 μM, 90 min; no GF
Method: as §1

kinases in BCWM.1 cells [10] = biological target: T3, kinases in BCWM.1 cells (Homo sapiens, UniProt Q16539); test: as above; conditions: p38a, 1 μM, 90 min, no GF
T3 sequence (Q16539 2-360 limits assumed): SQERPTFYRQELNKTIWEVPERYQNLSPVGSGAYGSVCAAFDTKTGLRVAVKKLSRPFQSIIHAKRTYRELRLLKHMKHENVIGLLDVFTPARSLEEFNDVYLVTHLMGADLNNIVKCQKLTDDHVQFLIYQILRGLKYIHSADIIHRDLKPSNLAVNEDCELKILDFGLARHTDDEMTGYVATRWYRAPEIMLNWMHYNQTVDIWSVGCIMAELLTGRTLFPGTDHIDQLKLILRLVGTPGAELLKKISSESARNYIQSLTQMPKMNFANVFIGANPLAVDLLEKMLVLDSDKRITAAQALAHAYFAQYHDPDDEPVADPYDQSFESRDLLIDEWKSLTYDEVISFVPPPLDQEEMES
Method: as §1

kinases in BCWM.1 cells [11] = biological target: kinases in BCWM.1 cells (Homo sapiens, UniProt O75385); test: as above; conditions: ULK1; Lys2; 1 μM, 90 min; no GF
Method: as §1

kinases in BCWM.1 cells [12] = test: as above; conditions: 1 μM, 90 min, no GF
Method: as §1

kinases in BCWM.1 cells [13] = biological target: kinases in BCWM.1 cells (Homo sapiens, UniProt P42338); test: as above; conditions: PIK3CB; ATP; 1 μM, 90 min; no GF
Method: as §1

kinases in BCWM.1 cells [14] = biological target: kinases in BCWM.1 cells (Homo sapiens, UniProt Q58A45); test: as above; conditions: PAN3; Protein Kinase Domain; 1 μM, 90 min; no GF
Method: as §1

kinases in BCWM.1 cells [15] = biological target: kinases in BCWM.1 cells (Homo sapiens, UniProt Q15208); test: as above; conditions: NDR1; Lys2; 1 μM, 90 min; no GF
Sequence of kinases in BCWM.1 cells (Homo sapiens, UniProt Q15208) (Q15208 2-465 limits assumed): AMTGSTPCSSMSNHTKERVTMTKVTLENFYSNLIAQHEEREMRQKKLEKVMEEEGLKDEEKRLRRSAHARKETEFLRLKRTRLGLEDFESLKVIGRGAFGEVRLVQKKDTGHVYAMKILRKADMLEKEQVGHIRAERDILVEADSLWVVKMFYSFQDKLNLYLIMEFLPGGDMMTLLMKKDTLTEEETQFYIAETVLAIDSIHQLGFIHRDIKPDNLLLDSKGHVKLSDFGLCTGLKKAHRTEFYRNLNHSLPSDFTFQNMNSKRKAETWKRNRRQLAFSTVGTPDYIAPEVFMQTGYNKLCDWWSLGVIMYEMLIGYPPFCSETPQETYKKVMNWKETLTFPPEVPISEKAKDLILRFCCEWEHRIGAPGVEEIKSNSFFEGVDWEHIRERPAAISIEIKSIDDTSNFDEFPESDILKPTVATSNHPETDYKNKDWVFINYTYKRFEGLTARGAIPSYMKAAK
Method: as §1

kinases in BCWM.1 cells [16] = biological target: kinases in BCWM.1 cells (Homo sapiens, UniProt O95819); test: as above; conditions: ZC1/HGK; Lys1; 1 μM, 90 min; no GF
Method: as §1

kinases in BCWM.1 cells [17] = biological target: T1, kinases in BCWM.1 cells; conditions: PIK3CG; ATP; 1 μM, 90 min; GF
Method: as §1

kinases in BCWM.1 cells [18] = biological target: kinases in BCWM.1 cells (Homo sapiens, UniProt P23443); conditions: p70S6K; Lys2; 1 μM, 90 min; GF
Method: as §1

kinases in BCWM.1 cells [19] = biological target: kinases in BCWM.1 cells (Homo sapiens, UniProt P04049); conditions: RAF1; Lys2; 1 μM, 90 min; GF
Method: as §1

kinases in BCWM.1 cells [20] = biological target: kinases in BCWM.1 cells (Homo sapiens, UniProt Q86SG6); conditions: NEK8; Lys2; 1 μM, 90 min; GF
Method: as §1

kinases in BCWM.1 cells [21] = biological target: kinases in BCWM.1 cells (Homo sapiens, UniProt O00750); conditions: PIK3C2B; ATP; 1 μM, 90 min; GF
Method: as §1

kinases in BCWM.1 cells [22] = biological target: T2, kinases in BCWM.1 cells; conditions: TEC; Activation Loop; 1 μM, 90 min; GF
Method: as §1

kinases in BCWM.1 cells [23] = biological target: T3, kinases in BCWM.1 cells; conditions: p38a, 1 μM, 90 min, GF
Method: as §1

kinases in BCWM.1 cells [24] = biological target: kinases in BCWM.1 cells (Homo sapiens, UniProt O43318); conditions: TAK1; Lys2; 1 μM, 90 min; GF
Method: as §1

kinases in BCWM.1 cells [25] = biological target: kinases in BCWM.1 cells (Homo sapiens, UniProt Q9Y2H1); conditions: NDR2; Lys2; 1 μM, 90 min; GF
Sequence of kinases in BCWM.1 cells (Homo sapiens, UniProt Q9Y2H1) (Q9Y2H1 2-464 limits assumed): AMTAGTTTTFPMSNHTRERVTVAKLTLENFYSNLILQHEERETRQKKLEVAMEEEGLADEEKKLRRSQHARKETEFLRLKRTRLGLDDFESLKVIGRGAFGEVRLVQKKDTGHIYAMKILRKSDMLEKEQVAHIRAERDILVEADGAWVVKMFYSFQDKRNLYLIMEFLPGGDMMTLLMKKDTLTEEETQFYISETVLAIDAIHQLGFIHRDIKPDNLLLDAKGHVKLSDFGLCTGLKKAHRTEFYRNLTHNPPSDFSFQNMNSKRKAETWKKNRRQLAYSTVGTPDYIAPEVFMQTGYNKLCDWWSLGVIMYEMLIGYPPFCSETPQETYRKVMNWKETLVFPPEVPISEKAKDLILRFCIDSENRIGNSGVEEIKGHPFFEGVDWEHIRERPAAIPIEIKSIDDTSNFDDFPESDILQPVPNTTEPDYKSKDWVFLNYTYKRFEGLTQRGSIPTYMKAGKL
Method: as §1

kinases in BCWM.1 cells [26] = biological target: kinases in BCWM.1 cells (Homo sapiens, UniProt Q13523); conditions: PRP4; Lys2; 1 μM, 90 min; GF
Sequence of kinases in BCWM.1 cells (Homo sapiens, UniProt Q13523) (Q13523 2-1007 limits assumed): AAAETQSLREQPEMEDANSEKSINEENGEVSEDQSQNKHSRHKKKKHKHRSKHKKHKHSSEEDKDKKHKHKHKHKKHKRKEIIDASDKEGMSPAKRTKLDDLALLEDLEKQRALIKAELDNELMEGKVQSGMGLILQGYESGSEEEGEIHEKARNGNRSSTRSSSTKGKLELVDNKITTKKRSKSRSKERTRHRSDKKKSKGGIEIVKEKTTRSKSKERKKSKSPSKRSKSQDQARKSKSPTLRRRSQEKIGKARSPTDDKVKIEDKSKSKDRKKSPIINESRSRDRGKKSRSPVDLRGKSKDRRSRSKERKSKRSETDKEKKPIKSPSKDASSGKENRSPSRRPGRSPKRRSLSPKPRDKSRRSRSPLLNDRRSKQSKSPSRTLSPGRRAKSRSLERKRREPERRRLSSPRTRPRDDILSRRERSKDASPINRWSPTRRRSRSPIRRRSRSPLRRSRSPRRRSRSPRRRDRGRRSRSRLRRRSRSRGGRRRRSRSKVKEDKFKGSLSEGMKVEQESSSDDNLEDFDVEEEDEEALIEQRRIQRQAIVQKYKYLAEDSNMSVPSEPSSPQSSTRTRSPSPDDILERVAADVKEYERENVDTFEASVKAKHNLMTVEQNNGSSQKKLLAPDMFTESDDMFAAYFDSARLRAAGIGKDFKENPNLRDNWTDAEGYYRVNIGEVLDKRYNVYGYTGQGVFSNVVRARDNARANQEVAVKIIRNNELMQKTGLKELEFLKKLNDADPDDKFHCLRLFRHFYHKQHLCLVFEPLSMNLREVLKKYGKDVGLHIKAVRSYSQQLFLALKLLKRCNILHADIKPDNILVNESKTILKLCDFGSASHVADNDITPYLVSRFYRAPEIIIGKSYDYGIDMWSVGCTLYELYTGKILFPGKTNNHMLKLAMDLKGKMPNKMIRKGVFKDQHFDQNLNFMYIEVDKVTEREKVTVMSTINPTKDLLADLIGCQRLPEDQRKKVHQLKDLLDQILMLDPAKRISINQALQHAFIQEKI
Method: as §1

CCC(=O)N1CC[C@H](Nc2nccc(Nc3ncc(C(=O)Nc4c(C)cccc4C)s3)n2)C1 [Example I-9]
% change of MS signal compared to control sample (kinases in BCWM.1 cells [1]): −10.8% | % change of MS signal compared to control sample (kinases in BCWM.1 cells [2]): −15.1% | % change of MS signal compared to control sample (kinases in BCWM.1 cells [3]): −9.3% | % change of MS signal compared to control sample (kinases in BCWM.1 cells [4]): 1.1% | % change of MS signal compared to control sample (kinases in BCWM.1 cells [5]): −21.3% | % change of MS signal compared to control sample (kinases in BCWM.1 cells [6]): −1.2% | % change of MS signal compared to control sample (kinases in BCWM.1 cells [7]): 22.1% | % change of MS signal compared to control sample (kinases in BCWM.1 cells [8]): 23% | % change of MS signal compared to control sample (kinases in BCWM.1 cells [9]): 97.4% | % change of MS signal compared to control sample (kinases in BCWM.1 cells [10]; Lys2): −7.8% | % change of MS signal compared to control sample (kinases in BCWM.1 cells [10]; Protein Kinase Domain): −2.9% | % change of MS signal compared to control sample (kinases in BCWM.1 cells [11]): −5.7% | % change of MS signal compared to control sample (kinases in BCWM.1 cells [12]; MST4, YSK1, Lys2): 9.7% | % change of MS signal compared to control sample (kinases in BCWM.1 cells [12]; NEK6, NEK7, Lys2): −3.3% | % change of MS signal compared to control sample (kinases in BCWM.1 cells [12]; PCTAIRE2, PCTAIRE3, Lys1): −4.7% | % change of MS signal compared to control sample (kinases in BCWM.1 cells [12]; PI4KA, PI4KAP2, ATP): 20.3% | % change of MS signal compared to control sample (kinases in BCWM.1 cells [12]; PKACa, PKCb, Lys2): 16.9% | % change of MS signal compared to control sample (kinases in BCWM.1 cells [12]; ROCK1, ROCK2, Lys2): 24.4% | % change of MS signal compared to control sample (kinases in BCWM.1 cells [12]; RSK1 domain1, RSK2 domain1, RSK3 domain1, Lys2): −12% | % change of MS signal compared to control sample (kinases in BCWM.1 cells [12]; SRPK1, SRPK2, Lys1): 10% | % change of MS signal compared to control sample (kinases in BCWM.1 cells [12]; TAO1, TAO3, Lys2): 5.1% | % change of MS signal compared to control sample (kinases in BCWM.1 cells [12]; Wnk1, Wnk2, Wnk3, Lys2): −10.8% | % change of MS signal compared to control sample (kinases in BCWM.1 cells [12]; Wnk1, Wnk2, ATP Loop): −6.3% | % change of MS signal compared to control sample (kinases in BCWM.1 cells [12]; ZC1/HGK, ZC2/TNIK, ZC3/MINK, Lys2): −2% | % change of MS signal compared to control sample (kinases in BCWM.1 cells [12]; p38d, p38g, Lys2): −8.8% | % change of MS signal compared to control sample (kinases in BCWM.1 cells [13]): 33.6% | % change of MS signal compared to control sample (kinases in BCWM.1 cells [14]): 23.2% | % change of MS signal compared to control sample (kinases in BCWM.1 cells [15]): −4.2% | % change of MS signal compared to control sample (kinases in BCWM.1 cells [16]): 20.9% | % change of MS signal compared to control sample (kinases in BCWM.1 cells [17]): −9.6% | % change of MS signal compared to control sample (kinases in BCWM.1 cells [18]): −8.6% | % change of MS signal compared to control sample (kinases in BCWM.1 cells [19]): −9.2% | % change of MS signal compared to control sample (kinases in BCWM.1 cells [20]): −5.8% | % change of MS signal compared to control sample (kinases in BCWM.1 cells [21]): 12.7% | % change of MS signal compared to control sample (kinases in BCWM.1 cells [22]): 40.8% | % change of MS signal compared to control sample (kinases in BCWM.1 cells [23]; Lys2): 9.8% | % change of MS signal compared to control sample (kinases in BCWM.1 cells [23]; Protein Kinase Domain): 8.7% | % change of MS signal compared to control sample (kinases in BCWM.1 cells [24]): 1% | % change of MS signal compared to control sample (kinases in BCWM.1 cells [25]): 2.9% | % change of MS signal compared to control sample (kinases in BCWM.1 cells [26]): −15.7%
